Data on two compounds can be found in patent US20060018951A1, “pH-responsive film for intravaginal delivery of a beneficial agent” (SRI International, priority 2003, published 2006).

For the assay, the system named is sperm. In words: Sperm motility assay. It counts as cell-based, Sprague-Dawley rats. As to the method: Male Sprague-Dawley-rats, between the ages of 16-22 weeks, were used for this study. Following anesthesia, both testes were removed and the epididymides were collected, rinsed in warm Dulbecco's phosphate buffered saline (37° C.), and placed in a petri dish containing approximately 10 mL warm MHF-10 (37° C.). The epididymides were minced with scissors to release sperm. Pipette sperm suspension into a 50 mL plastic centrifuge tube with a screw cap. Dilute sperm with additional MHF-10 (approximately 5-12 mL) to form a milky suspension. The initial percentage of motile sperm must be at least 70% for a valid assay, and is determined by inoculating 200 μL sperm suspension into 0.8 mL MHF-10 and counting motile versus nonmotile sperm. After the test article concentrations equilibrated in a 36° to 37° C. incubator for at least 30 minutes, 200 μL aliquots of the sperm suspension were added to the 0.8 mL test compound concentrations, two at a time, at 5 minute intervals, beginning with the highest concentration and proceeding to in order to the lowest concentration, then ending with vehicle and positive controls. The final volume was 1 mL per test compound concentration. Motility was assessed using a microscope. 50-μL aliquots of the test concentration, containing sperm, were added to the wells of preheated glass slides and covered with preheated glass coverslips. Pipette tips, slides, and coverslips were maintained at 36-37° C. on a warming plate. Motility was assessed at the appropriate exposure times, generally 20 and 40 min after addition of sperm to the test concentration. The degrees of motility of≧200 sperm per concentration per time point were evaluated as either not motile (0), incipiently motile (quivering/pulsing/wiggling) (1), slowly motile (2), or rapidly motile (3). Criteria for a Valid Assay. […] Percent motility in the tables below is calculated as (Prog. Motile)/Total (Prog.+Incip.+Non)×100.

[1] abbreviates: Experiment B, 1 min, film 49.1-50 mg, N9 amount not given, sperm count.
Where [2] appears, read: Experiment B, 15 min, film 49.1-50 mg, N9 amount not given, sperm count.
Where [3] appears, read: Experiment B, 30 min, film 49.1-50 mg, N9 amount not given, sperm count.
Where [4] appears, read: Experiment C, 1 min, Nos 5-8: films 49.9-51.0 mg, N9 amount not given, sperm count.
Setting [5] is: Experiment C, 15 min, Nos 5-8: films 49.9-51.0 mg, N9 amount not given, sperm count.
[6] abbreviates: Experiment C, 30 min, Nos 5-8: films 49.9-51.0 mg, N9 amount not given, sperm count.
The mark [7] stands for this setting: Experiment D, 1 min, films 50-50.09 mg, N9 amount not given, sperm count.
The mark [8] stands for this setting: Experiment D, 15 min, films 50-50.09 mg, N9 amount not given, sperm count.
Setting [9] is: Experiment D, 30 min, films 50-50.09 mg, N9 amount not given, sperm count.
Where [10] appears, read: first sperm study (T8), 1 min, films 4.3-19.8 mg, sperm count.
[11] abbreviates: first sperm study (T8), 15 min, films 4.3-19.8 mg, sperm count.
Where [12] appears, read: first sperm study (T8), 30 min, films 4.3-19.8 mg, sperm count.

Take `CC(O)C(=O)O` (centres unmarked) [Lactic Acid 4%, Lactic Acid]: the Non-Mot is, setting by setting: (Experiment B, 1 min, 100 μl solution, sperm count) 103; (Experiment B, 1 min, 200 μl solution, sperm count) 200.
In the case of “nonylphenoxypolyethoxy ethanol [Formulation N-9]”, the “% Motility” value came to 0% (Experiment B, 1 min, film 49.1-50 mg, N9 amount not given); 0% (Experiment B, 15 min, film 49.1-50 mg, N9 amount not given); 0% (Experiment B, 30 min, film 49.1-50 mg, N9 amount not given); 0% (Experiment C, 1 min, Nos 5-8: films 49.9-51.0 mg, N9 amount not given); 0% (Experiment D, 1 min, films 50-50.09 mg, N9 amount not given); 0% (Experiment D, 15 min, films 50-50.09 mg, N9 amount not given). Also, the “% Motility” value is given as 0% (Experiment D, 30 min, films 50-50.09 mg, N9 amount not given); 0% (first sperm study (T8), 1 min, films 4.3-19.8 mg); 0% (first sperm study (T8), 15 min, films 4.3-19.8 mg); 0% (first sperm study (T8), 30 min, films 4.3-19.8 mg). The Incip.Mot was determined as 0 under setting [1]; 0 under setting [2]; 0 under setting [3]; 0 under setting [4]; 0 under setting [5]; 0 under setting [6]. In addition, the Incip.Mot runs as follows: under setting [7], 0; under setting [8], 0; under setting [9], 0; under setting [10], 0; under setting [11], 0; under setting [12], 0. In addition, the Non-Mot came to 200 under setting [1]; 200 under setting [2]; 200 under setting [3]; 200 under setting [4]; 200 under setting [5]; 200 under setting [6]. Moreover, the Non-Mot by setting is: under setting [7], 200; under setting [8], 200; under setting [10], 100. For the same compound, the Prog.-Mot under setting [1] was 0. Moreover, the Prog.Mot runs as follows: under setting [3], 0; under setting [7], 0; under setting [8], 0. The Prog-Mot under setting [4] came out at 0. The Total by setting is: (Experiment C, 15 min, Nos 5-8: films 49.9-51.0 mg, N9 amount not given) 0; (Experiment C, 30 min, Nos 5-8: films 49.9-51.0 mg, N9 amount not given) 0. Moreover, the Mot runs as follows: under setting [5], 0; under setting [6], 0; under setting [9], 0. Also, the Non-Motile is 100 under setting [11] and 100 under setting [12]. Besides, the Prog-Motile is on record as 0 under setting [11] and 0 under setting [12].
